This note sets out measurements from PubChem BioAssay AID2683 (Broad Institute, 2010).

For this assay, the system named is S. cerevisiae SKY197-pL101 polyadenylation reporter, beta-gal luminescence, 9 h. Put plainly: yeast polyadenylation reporter signal increase, dose response, polyadenylation inhibitor project, S. cerevisiae SKY197-pL101, beta-gal luminescence (AID 2683).

Values joined by “and” are separate entries in the source; they are usually repeats but may differ in a detail not shown here. Identical values can stand only once. Active and inactive are the calls of the source.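 Rule for the calls: active = rising-signal curve whose EC50 is at most tenfold above the top concentration tested; inconclusive = flat fit with activity between 30% and 70%, or invalid fit; inactive = the rest.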

Consider `Cc1cccc2[nH]c(/C(C#N)=C/c3ccc([N+](=O)[O-])o3)nc12`, for which the EC50 was 5.83 µM.
In the case of `Cc1ccc2nc(/C(C#N)=C/c3ccc(C)o3)[nH]c2c1` it was > 12 µM (inactive).
On to `N#C/C(=C\c1ccc([N+](=O)[O-])o1)c1nc2ccccc2[nH]1`, for which the EC50 is 10.8 µM.
Next, `N#C/C(=C\c1ccco1)c1nc2ccccc2[nH]1`: > 12 µM (inactive); `Cc1ccc2nc(/C(C#N)=C/c3ccc([N+](=O)[O-])o3)[nH]c2c1`: 6.5 µM and 7.25 µM; `N#C/C(=C/c1ccc([N+](=O)[O-])o1)c1nc2ccccc2[nH]1`: 8.25 µM.
In the case of `N#C/C(=C\c1cccc([N+](=O)[O-])c1)c1nc2ccccc2[nH]1` it was > 12 µM (inactive).

One may read the EC50 as the concentration giving half of the maximal effect.
